Source: ChEMBL document CHEMBL5634089, “Design, synthesis and evaluation of 2-pyrimidinylindole derivatives as anti-obesity agents by regulating lipid metabolism” (Eur J Med Chem, 2023)
In brackets after ≈: the same amount, converted by molar mass. Activity calls are given as the source filed them. No cut-off for these calls is given here.

How the values were obtained:
[1] = AUC (0 to infinity) in Sprague-Dawley rat at 2 mg/kg, iv administered for 24 hrs by LC-MS/MS analysis; type: ADME, organism-based; settings: in vivo
[2] = Apparent volume of distribution during terminal phase in Sprague-Dawley rat at 2 mg/kg, iv administered for 24 hrs by LC-MS/MS analysis; type: ADME, organism-based; settings: in vivo
[3] = Aqueous solubility of compound incubated for 24 hrs by HPLC analysis; type: physicochemical; settings: aqueous medium
[4] = Oral bioavailability (0 to infinity) in Sprague-Dawley rat at 20 mg/kg administered for 24 hrs by LC-MS/MS analysis; type: ADME, organism-based; settings: in vivo
Mus musculus [5] = assay: Anti-obesity activity in high-fat and high-cholesterol diet induced C57BL/6J mouse assessed as reduction in liver damage by measuring reduction in aspartate aminotransferase level in serum at 20 mg/kg, ip administered every day for 6 weeks; type: functional, organism-based
3T3-L1 [6] = assay: Anti-adipogenic activity against mouse 3T3-L1 cells assessed as increase in Mcad mRNA expression at 0.2 to 0.8 uM incubated for 3 days by RT-PCR analysis; type: functional, cell-based; settings: dose 0.2-0.8 µM, time 3.0 day
[7] = Half life in Sprague-Dawley rat at 2 mg/kg, iv administered for 24 hrs by LC-MS/MS analysis; type: ADME, organism-based; settings: in vivo
[8] = Apparent volume of distribution during terminal phase in Sprague-Dawley rat at 20 mg/kg, po administered for 24 hrs by LC-MS/MS analysis; type: ADME, organism-based; settings: in vivo, read-out: Vz/F
Mus musculus [9] = assay: Anti-obesity activity in high-fat and high-cholesterol diet induced C57BL/6J mouse model assessed as reduction in body weight at 20 mg/kg, ip administered every day for 6 weeks and measured daily relative to control; type: functional; parameters: scale not given: the % may be the effect or the level left
3T3-L1 [10] = assay: Anti-adipogenic activity against mouse 3T3-L1 cells assessed as decrease in C/EBP alpha mRNA expression at 0.2 to 0.8 uM incubated for 3 days by RT-PCR analysis; type: functional, cell-based; settings: dose 0.2-0.8 µM, time 3.0 day
[11] = Tmax in Sprague-Dawley rat at 20 mg/kg, po administered for 24 hrs by LC-MS/MS analysis; type: ADME, organism-based; settings: in vivo
[12] = AUC (0 to infinity) in Sprague-Dawley rat at 20 mg/kg, po administered for 24 hrs by LC-MS/MS analysis; type: ADME, organism-based; settings: in vivo
3T3-L1 [13] = assay: Anti-adipogenic activity against mouse 3T3-L1 cells assessed as decrease in Fasn mRNA expression at 0.2 to 0.8 uM incubated for 3 days by RT-PCR analysis; type: functional, cell-based; settings: dose 0.2-0.8 µM, time 3.0 day
3T3-L1 [14] = assay: Anti-adipogenic activity against mouse 3T3-L1 cells assessed as increase in Cpt1 alpha mRNA expression at 0.2 to 0.8 uM incubated for 3 days by RT-PCR analysis; type: functional, cell-based; settings: dose 0.2-0.8 µM, time 3.0 day
[15] = Therapeutic index, ratio of IC50 for cytotoxicity against mouse 3T3-L1 cells to EC50 for anti-adipogenic in mouse 3T3-L1 cells; type: toxicity, cell-based; settings: read-out: Ratio IC50/EC50
Mus musculus [16] = assay: Anti-obesity activity in high-fat and high-cholesterol diet induced C57BL/6J mouse assessed as reduction in LDL-c level at 20 mg/kg, ip administered every day for 6 weeks; type: functional, organism-based
Mus musculus [17] = assay: Anti-obesity activity in high-fat and high-cholesterol diet induced C57BL/6J mouse assessed as attenuation of insulin resistance at 20 mg/kg, ip measured after 5 weeks by ITT analysis; type: functional, organism-based
[18] = Cytotoxicity against mouse 3T3-L1 cells assessed as reduction in cell viability incubated for 24 hrs by Sulforhodamine B assay; type: toxicity, cell-based
3T3-L1 [19] = assay: Anti-adipogenic activity in mouse 3T3-L1 cells assessed as lipid-lowering activity at 1 uM measured after 9 days by Oil Red O staining based microplate reader analysis relative to control; type: functional; settings: time 9 day
Mus musculus [20] = assay: Anti-obesity activity in high-fat and high-cholesterol diet induced C57BL/6J mouse assessed as reduction in serum glucose level at 20 mg/kg, ip measured after 3 weeks by GTT analysis; type: functional, organism-based
[21] = MRT (0 to t) in Sprague-Dawley rat at 2 mg/kg, iv administered for 24 hrs by LC-MS/MS analysis; type: ADME, organism-based; settings: in vivo
Adipocyte = assay: Anti-adipogenic activity against mouse […] Adipocytes assessed as lipid-lowering activity by Oil Red O staining based microplate reader analysis; type: functional, cell-based
Mus musculus [22] = assay: Anti-obesity activity in high-fat and high-cholesterol diet induced C57BL/6J mouse assessed as reduction in liver damage by measuring reduction in LDH level in serum at 20 mg/kg, ip administered every day for 6 weeks; type: functional, organism-based
Mus musculus [23] = assay: Anti-obesity activity in high-fat and high-cholesterol diet induced C57BL/6J mouse assessed as reduction in liver damage by measuring reduction in alanine aminotransferase level in serum at 20 mg/kg, ip administered every day for 6 weeks; type: functional, organism-based
3T3-L1 [24] = assay: Anti-adipogenic activity against mouse 3T3-L1 cells assessed as decrease in Elovl6 mRNA expression at 0.2 to 0.8 uM incubated for 3 days by RT-PCR analysis; type: functional, cell-based; settings: dose 0.2-0.8 µM, time 3.0 day
3T3-L1 [25] = assay: Anti-adipogenic activity against mouse 3T3-L1 cells assessed as decrease in Scd1 mRNA expression at 0.2 to 0.8 uM incubated for 3 days by RT-PCR analysis; type: functional, cell-based; settings: dose 0.2-0.8 µM, time 3.0 day
Mus musculus [26] = assay: Anti-obesity activity in high-fat and high-cholesterol diet induced C57BL/6J mouse assessed as reduction in total cholesterol level at 20 mg/kg, ip administered every day for 6 weeks; type: functional, organism-based
Mus musculus [27] = assay: Anti-obesity activity in high-fat and high-cholesterol diet induced C57BL/6J mouse assessed as attenuation of inflammation in liver at 20 mg/kg, ip administered everyday for 6 weeks by hematoxylin and eosin staining based microscopic analysis; type: functional, organism-based
[28] = Half life in Sprague-Dawley rat at 20 mg/kg, po administered for 24 hrs by LC-MS/MS analysis; type: ADME, organism-based; settings: in vivo
[29] = Apparent oral clearance in Sprague-Dawley rat at 20 mg/kg, po administered for 24 hrs by LC-MS/MS analysis; type: ADME, organism-based; settings: in vivo
3T3-L1 [30] = assay: Anti-adipogenic activity in mouse 3T3-L1 cells assessed as lipid-lowering activity measured after 9 days by Oil Red O staining based microplate reader analysis; type: functional, cell-based; settings: 3T3-L1, 216 h
Mus musculus [31] = assay: Inhibition of lipid synthesis in high-fat and high-cholesterol diet induced C57BL/6J mouse assessed as downregulation of FABP4 protein expression at 20 mg/kg, ip administered for 6 weeks by Western blotting analysis; type: functional, organism-based
[32] = AUC (0 to t) in Sprague-Dawley rat at 20 mg/kg, po administered for 24 hrs by LC-MS/MS analysis; type: ADME, organism-based; settings: in vivo
Mus musculus [33] = assay: Anti-obesity activity in high-fat and high-cholesterol diet induced C57BL/6J mouse assessed as attenuation of hepatocyte ballooning at 20 mg/kg, ip administered every day for 6 weeks by […] staining based microscopic analysis; type: functional, organism-based
Mus musculus [34] = assay: Anti-obesity activity in high-fat and high-cholesterol diet induced C57BL/6J mouse assessed as reduction in liver damage by measuring reduction in cholinesterase level in serum at 20 mg/kg, ip administered every day for 6 weeks; type: functional, organism-based
[35] = Oral bioavailability (0 to t) in Sprague-Dawley rat at 20 mg/kg administered for 24 hrs by LC-MS/MS analysis; type: ADME, organism-based; settings: in vivo
Mus musculus [36] = assay: Anti-obesity activity in high-fat and high-cholesterol diet induced C57BL/6J mouse assessed as reduction in fat mass at 20 mg/kg, ip administered every day for 6 weeks; type: functional, organism-based

CC(=O)c1c(-c2nccc(NCCN3CCCC3)n2)[nH]c2ccccc12 showed an AUC(0-inf) [1] of 225 ng·h/mL, a Vz/F [2] of 24.4 L/kg and a solubility at 24 h [3] of 161 µg/mL (≈ 461 µM). The bioavailability [4] was 65.5%, the Activity (Mus musculus [5]) was “Active” and the Activity (3T3-L1 [6]) was “Active”. It also gave a half-life [7] of 1.9 h, a Vd/F [8] of 65.2 L/kg and an Activity (Mus musculus [9]) of 17.4%. For the same compound, the Activity (3T3-L1 [10]) was “Active”, the Tmax [11] was 2.8 h and the AUC(0-inf) [12] was 1470 ng·h/mL. The Activity (3T3-L1 [13]) was “Active”, the Activity (3T3-L1 [14]) was “Active” and the selectivity ratio [15] was 255. For the same compound, the Activity (Mus musculus [16]) was “Active”, the Activity (Mus musculus [17]) was “Active” and the IC50 at 24 h [18] was 27000 nM. The Activity (3T3-L1 [19]) was 100.7%, the Activity (Mus musculus [20]) was “Active” and the MRT last at 24 h [21] was 1.6 h. For the same compound, the EC50 (Adipocyte) was 289 nM, the Activity (Mus musculus [22]) was “Active” and the Activity (Mus musculus [23]) was “Active”. For the same compound, the Activity (3T3-L1 [24]) was “Active”, the Activity (3T3-L1 [25]) was “Active” and the Activity (Mus musculus [26]) was “Active”. The Activity (Mus musculus [27]) was “Active”, the half-life [28] was 2.9 h and the CL/F [29] was 255 mL/min/kg. The EC50 (3T3-L1 [30]) was 106 nM, the inhibition (Mus musculus [31]) was “Active” and the AUC(0-t) at 24 h [32] was 1380 ng·h/mL. The Activity (Mus musculus [33]) was “Active”, the Activity (Mus musculus [34]) was “Active” and the bioavailability [35] was 63%. For the same compound, the Activity (Mus musculus [36]) was “Active”.
